Literature values as cited in patent US20170258815A1, “CORTICOSTEROID FORMULATIONS AND METHODS FOR THE TREATMENT OF JOINT PAIN IN PATIENTS WITH DIABETES” (Flexion Therapeutics, Inc., priority 2016, published 2017).

System: patients with controlled DM and OA of the knee

Row | SMILES | Levels of blood glucose after IA injection compared with IA hyaluronic acid
1 | CC(C)(C)CC(=O)OCC(=O)[C@@]12OC(C)(C)O[C@@H]1C[C@H]1[C@@H]3CCC4=CC(=O)C=C[C@]4(C)[C@@]3(F)[C@@H](O)C[C@@]12C [triamcinolone hexacetonide] | significantly increased levels of blood glucose
2 | CC1(C)O[C@@H]2C[C@H]3[C@@H]4CCC5=CC(=O)C=C[C@]5(C)[C@@]4(F)[C@@H](O)C[C@]3(C)[C@]2(C(=O)CO)O1 [TCA, Triamcinolone acetonide] | significantly increased levels of blood glucose
